Measurements published in US10233186B2, “Inhibitors of activin receptor-like kinase” (BLUEPRINT MEDICINES CORPORATION, priority 2016, dated 2019).

How the values were obtained:
[1] = molecular target: T1, ALK2 R206H (GST-tagged mutant ALK2) (Homo sapiens, UniProt Q04771, R206H); assay: ALK binding assay (LANTHASCREEN TR-FRET competitive binding, displacement of Kinase Tracer 178); conditions: ALK2 R206H, LANTHASCREEN TR-FRET competitive binding; read-out: Binding Assay (IC50)
T1 construct: purchased Carna Bioscience or ThermoFisher 09-148 or PV6232
T1 sequence (Q04771 21-509 R206H): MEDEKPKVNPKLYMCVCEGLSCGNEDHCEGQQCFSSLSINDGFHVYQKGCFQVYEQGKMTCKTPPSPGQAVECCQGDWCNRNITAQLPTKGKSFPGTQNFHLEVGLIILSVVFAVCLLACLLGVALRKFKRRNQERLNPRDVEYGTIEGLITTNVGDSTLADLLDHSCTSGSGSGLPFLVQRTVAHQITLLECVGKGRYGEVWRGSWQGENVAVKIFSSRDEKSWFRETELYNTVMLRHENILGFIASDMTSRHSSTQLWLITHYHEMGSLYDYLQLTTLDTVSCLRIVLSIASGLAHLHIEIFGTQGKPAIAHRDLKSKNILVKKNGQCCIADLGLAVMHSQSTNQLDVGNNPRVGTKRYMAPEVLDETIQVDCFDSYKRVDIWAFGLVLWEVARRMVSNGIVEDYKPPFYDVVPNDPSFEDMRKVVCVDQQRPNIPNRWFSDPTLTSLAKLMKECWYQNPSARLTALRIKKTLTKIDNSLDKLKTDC
Procedure: Binding assays were conducted using the LANTHASCREEN® technology (ThermoFisher Scientific). LANTHASCREEN® is a competitive binding, displacement assay where the assumed steady state occupancy of the binding site is measured using a time-resolved, fluorescence energy transfer (TR-FRET) readout between a fluorescent tracer and Europium (Eu)-tagged antibody specific for the kinase or expression tag (e.g. GST) of interest. Displacement of the tracer by a compound of the disclosure reduces, and is directly proportional to, the TR-FRET between the tracer and the antibody. Tracer was used at a concentration equal to or near to its Kd for the kinase.
In all cases, the kinase (2-5 nM) was mixed with Eu-tagged antibody (10 nM) mix and tracer (50 nM) were incubated with test compound titrations prepared in 100% DMSO (1% DMSO final) for 30 minutes at room temperature. All reagents and compounds were dissolved in Kinase Buffer A (ThermoFisher) to achieve the final concentration. […] This readout was normalized to 0% and 100% inhibited control wells, plotted against inhibitor concentration, and fitted to a 4-parameter log dose response curve.
(§1) Blank values in the table indicate that the particular compound was not tested in this assay.

human ALK2 R206H = molecular target: T2, human ALK2 R206H (Homo sapiens, UniProt Q04771, R206H); assay: Cell-based ALK2-R206H cell activity assay (Smad1-Ser463/Ser465 phosphorylation by AlphaLISA in HEK293-ALK2-R206H cells); conditions: read-out: Cell Line (Cell Assay IC50)
T2 construct: expressed in transfected cells; host or cells: HEK293 (ATCC CRL1573), lentivirus transduction, blasticidin selection
T2 sequence (Q04771 21-509 R206H): T1 sequence (Q04771 21-509 R206H)
Procedure: A HEK293 (ATCC, Cat^# CRL1573) based stable cell line expressing human ALK2 R206H cDNA (synthesized by GeneScript, Piscataway, N.J.) and a FLAG tag at the C-terminus was generated by lentivirus transduction and subsequent blasticidin (Life Technologies, Cat^#-A1113902) selection at 10 μg/ml for >2 wks. This cell line was named HEK293-ALK2-R206H.
Test compounds were first diluted to 4 mM or 0.4 mM and then serially diluted 3-fold into 10 different concentrations using DMSO. […] Two μl of the diluted compounds were then dispensed into the HEK293-ALK2-R206H cell-containing wells of the microplates in duplicates. In this way, each compound was tested in 10 doses (3-fold serial dilution with the top concentration being 10 μM or 1 μM). Liquid handling was achieved using a Bravo Automated Liquid Handling Platform (Agilent Technologies). DMSO without compound was used as a negative control. The positive control was 1 μM LDN193189, a known bone morphogenetic protein (BMP inhibitor).
The 10-point dose response curve was used to calculate the IC50 values.
as §1

Row | Structure (SMILES) | IC50 [1] [nM] | IC50 (human ALK2 R206H) [nM]
1 | O=C(C1CC1)N1CCN(c2ccnn3cc(-c4ccc([C@H]5CNCCO5)cc4)cc23)CC1 [Compound 130, (S)-cyclopropyl(4-(6-(4-(morpholin-2-yl)phenyl)pyrrolo[1,2-b]pyridazin-4-yl)piperazin-1-yl)methanone] | < 10 | 100 to 500
2 | O=C(C1CC1)N1CCN(c2ccnn3cc(-c4ccc([C@@H]5CNCCO5)cc4)cc23)CC1 [Compound 131, (R)-cyclopropyl(4-(6-(4-(morpholin-2-yl)phenyl)pyrrolo[1,2-b]pyridazin-4-yl)piperazin-1-yl)methanone] | < 10 | 100 to 500
3 | O=C(C1CC1)N1CCN(c2ccnn3cc(-c4ccc(OCC5CCN5)cc4)cc23)CC1 (centres unmarked) [Compound 132] | < 10 | < 100
4 | O=C(C1CC1)N1CCN(c2ccnn3cc(-c4ccc(OC5CCNC5)cc4)cc23)CC1 (centres unmarked) [Compound 133] | < 10 | < 100
5 | O=C(C1CC1)N1CCN(c2ccnn3cc(-c4ccc(OCC5CNC5)cc4)cc23)CC1 [Compound 134] | < 10 | 100 to 500
6 | O=C(C1CC1)N1CCN(c2ccnn3cc(-c4ccc(N5CCNCC5)nc4)cc23)CC1 [Compound 135] | 10 to 50 | 100 to 500
7 | O=C(C1CC1)N1CCN(c2ccnn3cc(-c4ccc(C5CNCC5F)cc4)cc23)CC1 (centres unmarked) [Compound 137] | < 10 | < 100
8 | CCNC(=O)N1CCN(c2ccnn3cc(-c4ccc(N5CCNCC5)cc4)cc23)CC1 [Compound 140] | < 10 | < 100
9 | CCNC(=O)N1CCN(c2ccnn3cc(-c4ccc([C@@H]5CNCCO5)cc4)cc23)CC1 [Compound 142] | < 10 | 100 to 500
10 | CCOC(=O)N1CCN(c2ccnn3cc(-c4ccc(N5CCNCC5)cc4)cc23)CC1 [Compound 143] | < 10 | < 100
11 | CCOC(=O)N1CCN(c2ccnn3cc(-c4ccc(C5CNCCO5)cc4)cc23)CC1 (centres unmarked) [Compound 144] | < 10 | 100 to 500
12 | CCOC(=O)N1CCN(c2ccnn3cc(-c4ccc(C5CNCC5F)cc4)cc23)CC1 (centres unmarked) [Compound 145] | < 10 | < 100
13 | O=C(C1CC1)N1CCN(c2ccnn3cc(-c4ccc(N5CC6(CNC6)C5)cc4)cc23)CC1 [Compound 146] | < 10 | 100 to 500
14 | CCN1CCC(c2ccc(-c3cc4c(N5CCN(C(=O)C6CC6)CC5)ccnn4c3)cc2)C1 (centres unmarked) [Compound 147] | < 10 | < 100

Second part, the compound after the results:

Row | IC50 [1] [nM] | IC50 (human ALK2 R206H) [nM] | Structure (SMILES)
15 | < 10 | < 100 | CCN1CC[C@@H](c2ccc(-c3cc4c(N5CCN(C(=O)C6CC6)CC5)ccnn4c3)cc2)C1 [Compound 148]
16 | < 10 | < 100 | CCN1CC[C@H](c2ccc(-c3cc4c(N5CCN(C(=O)C6CC6)CC5)ccnn4c3)cc2)C1 [Compound 149]
17 | < 10 | < 100 | CC(C)N1CC(c2ccc(-c3cc4c(N5CCN(C(=O)C6CC6)CC5)ccnn4c3)cc2)C1 [Compound 150, cyclopropyl(4-(6-(4-(1-isopropylazetidin-3-yl)phenyl)pyrrolo[1,2-b]pyridazin-4-yl)piperazin-1-yl)methanone]
18 | < 10 | < 100 | C[C@@H]1CN(c2ccnn3cc(-c4ccc(N5CCNCC5)cc4)cc23)CCN1C(=O)C1CC1 [Compound 152]
19 | < 10 | 100 to 500 | CN1CCN(c2ccc(-c3cc4c(N5CCN(C(=O)C6CC6)CC5)ccnn4c3)cc2)CC1 [Compound 153]
20 | < 10 | 100 to 500 | O=C(C1CCC1)N1CCN(c2ccnn3cc(-c4ccc(N5CCNCC5)cc4)cc23)CC1 [Compound 154]
21 | < 10 | 100 to 500 | C[C@@H]1CN(c2ccc(-c3cc4c(N5CCN(C(=O)C6CC6)CC5)ccnn4c3)cc2)CCN1 [Compound 155]
22 | < 10 | < 100 | C[C@H]1CN(c2ccc(-c3cc4c(N5CCN(C(=O)C6CC6)CC5)ccnn4c3)cc2)CCN1 [Compound 156]
